Data published in the supplement of paper PMC9663587.

Tests used:
[1] = compound: CC(=O)c1c(C)c2cnc(Nc3ccc(N4CCNCC4)cn3)nc2n(C2CCCC2)c1=O; assay: increase in dead-cell fraction, 72 h; higher = more death;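 note: breast cancer cell lines in 384-well plates, stained with Hoechst plus LIVE/DEAD far red dye and imaged, cells above an LDR intensity threshold counted dead, Hoechst-negative corpses included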
[2] = compound: CCN1CCN(Cc2ccc(Nc3ncc(F)c(-c4cc(F)c5nc(C)n(C(C)C)c5c4)n3)nc2)CC1; assay: as above
[3] = compound: CC(=O)c1c(C)c2cnc(Nc3ccc(N4CCNCC4)cn3)nc2n(C2CCCC2)c1=O; assay: GR value, 72 h; higher = faster growth (1 = untreated, <0 = killing);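 note: breast cancer and non-malignant breast epithelial lines, nine half-log doses, viable cells counted by Hoechst and LIVE/DEAD dye imaging versus time-zero plates and DMSO controls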
[4] = compound: CCN1CCN(Cc2ccc(Nc3ncc(F)c(-c4cc(F)c5nc(C)n(C(C)C)c5c4)n3)nc2)CC1; assay: as above
[5] = compound: CCc1cnn2c(NCc3ccc[n+]([O-])c3)cc(N3CCCC[C@H]3CCO)nc12; assay: as above
Neratinib/HKI272 = compound: CCOc1cc2ncc(C#N)c(Nc3ccc(OCc4ccccn4)c(Cl)c3)c2cc1NC(=O)/C=C/CN(C)C [Neratinib/HKI272]; assay: as above
Flavopiridol [6] = compound: T1, CN1CC[C@H](c2c(O)cc(O)c3c(=O)cc(-c4ccccc4Cl)oc23)[C@H](O)C1 [Flavopiridol]; assay: increase in dead-cell fraction, 72 h; higher = more death;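 note: breast cancer cell lines in 384-well plates, stained with Hoechst plus LIVE/DEAD far red dye and imaged, cells above an LDR intensity threshold counted dead, Hoechst-negative corpses included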
LEE011/Ribociclib [7] = compound: T2, CN(C)C(=O)c1cc2cnc(Nc3ccc(N4CCNCC4)cn3)nc2n1C1CCCC1 [LEE011/Ribociclib]; assay: as above
Flavopiridol [8] = compound: T1, Flavopiridol; assay: GR value, 72 h; higher = faster growth (1 = untreated, <0 = killing);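 note: breast cancer and non-malignant breast epithelial lines, nine half-log doses, viable cells counted by Hoechst and LIVE/DEAD dye imaging versus time-zero plates and DMSO controls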
BSJ-03-123 = compound: CC(=O)c1c(C)c2cnc(Nc3ccc(N4CCN(CCOCCOCCOCCNC(=O)COc5cccc6c5C(=O)N(C5CCC(=O)NC5=O)C6=O)CC4)cn3)nc2n(C2CCCC2)c1=O [BSJ-03-123]; assay: as above
LEE011/Ribociclib [9] = compound: T2, LEE011/Ribociclib; assay: as above
THZ1 = compound: CN(C)C/C=C/C(=O)Nc1ccc(C(=O)Nc2cccc(Nc3ncc(Cl)c(-c4c[nH]c5ccccc45)n3)c2)cc1 [THZ1]; assay: as above

In the case of MDAMB157, the “increase in dead-cell fraction” value ([1]; 0.0003162 µM) is reported as 0.0033, the “increase in dead-cell fraction” value ([1]; 0.001 µM) is reported as 0.0064 and the “increase in dead-cell fraction” value ([1]; 0.003162 µM) is reported as 0.0023. The “increase in dead-cell fraction” value ([1]; 0.01 µM) was 0.0015, the “increase in dead-cell fraction” value ([1]; 0.03162 µM) was 0.0013 and the “increase in dead-cell fraction” value ([1]; 0.1 µM) was 0.0006. For the same cell line, the “increase in dead-cell fraction” value ([1]; 0.3162 µM) was -0.002, the “increase in dead-cell fraction” value ([1]; 1 µM) was -0.0042 and the “increase in dead-cell fraction” value ([1]; 3.162 µM) was -0.0011. The “increase in dead-cell fraction” value ([2]; 0.001 µM) was -0.0027, the “increase in dead-cell fraction” value ([2]; 0.003162 µM) was -0.0032 and the “increase in dead-cell fraction” value ([2]; 0.01 µM) was -0.0032. For the same cell line, the “increase in dead-cell fraction” value ([2]; 0.03162 µM) was 0.0011, the “increase in dead-cell fraction” value ([2]; 0.1 µM) was 0.0051 and the “increase in dead-cell fraction” value ([2]; 0.3162 µM) was 0.0141. For the same cell line, the “increase in dead-cell fraction” value ([2]; 1 µM) was 0.0387, the “increase in dead-cell fraction” value ([2]; 3.162 µM) was 0.0737 and the “increase in dead-cell fraction” value ([2]; 10 µM) was 0.48. The GR value ([3]; 0.0003162 µM) was 0.945 GR, the GR value ([3]; 0.001 µM) was 0.976 GR and the GR value ([3]; 0.003162 µM) was 0.969 GR. For the same cell line, the GR value ([3]; 0.01 µM) was 1.08 GR, the GR value ([3]; 0.03162 µM) was 1.02 GR and the GR value ([3]; 0.1 µM) was 1.02 GR. The GR value ([3]; 0.3162 µM) was 0.965 GR, the GR value ([3]; 1 µM) was 1.05 GR and the GR value ([3]; 3.162 µM) was 0.991 GR. For the same cell line, the GR value ([4]; 0.001 µM) was 1.01 GR, the GR value ([4]; 0.003162 µM) was 1.08 GR and the GR value ([4]; 0.01 µM) was 0.993 GR. The GR value ([4]; 0.03162 µM) was 0.928 GR, the GR value ([4]; 0.1 µM) was 0.913 GR and the GR value ([4]; 0.3162 µM) was 0.727 GR. The GR value ([4]; 1 µM) was 0.578 GR, the GR value ([4]; 3.162 µM) was 0.441 GR and the GR value ([4]; 10 µM) was -0.587 GR. It also gave a GR value ([5]; 0.0001 µM) of 1.07 GR, a GR value ([5]; 0.0003162 µM) of 1.05 GR and a GR value ([5]; 0.001 µM) of 1.06 GR. For the same cell line, the GR value ([5]; 0.003162 µM) was 0.982 GR, the GR value ([5]; 0.01 µM) was 0.929 GR and the GR value ([5]; 0.03162 µM) was -0.488 GR. For the same cell line, the GR value ([5]; 0.1 µM) was -0.86 GR, the GR value ([5]; 0.3162 µM) was -0.899 GR and the GR value ([5]; 1 µM) was -0.915 GR. It also gave a GR value (Neratinib/HKI272; 0.0003162 µM) of 1.03 GR, a GR value (Neratinib/HKI272; 0.001 µM) of 0.981 GR and a GR value (Neratinib/HKI272; 0.003162 µM) of 1.04 GR. It also gave a GR value (Neratinib/HKI272; 0.01 µM) of 1 GR, a GR value (Neratinib/HKI272; 0.03162 µM) of 0.921 GR and a GR value (Neratinib/HKI272; 0.1 µM) of 0.842 GR. For the same cell line, the GR value (Neratinib/HKI272; 0.3162 µM) was 0.708 GR, the GR value (Neratinib/HKI272; 1 µM) was 0.445 GR and the GR value (Neratinib/HKI272; 3.162 µM) was 0.151 GR.

For PDX1206, the “increase in dead-cell fraction” value (Flavopiridol [6]; 0.0001 µM) was 0.009, the “increase in dead-cell fraction” value (Flavopiridol [6]; 0.0003162 µM) was 0.0115 and the “increase in dead-cell fraction” value (Flavopiridol [6]; 0.001 µM) was 0.0015. The “increase in dead-cell fraction” value (Flavopiridol [6]; 0.003162 µM) was 0.0091, the “increase in dead-cell fraction” value (Flavopiridol [6]; 0.01 µM) was -0.0105 and the “increase in dead-cell fraction” value (Flavopiridol [6]; 0.03162 µM) was 0.0053. For the same cell line, the “increase in dead-cell fraction” value (Flavopiridol [6]; 0.1 µM) was 0.0408, the “increase in dead-cell fraction” value (Flavopiridol [6]; 0.3162 µM) was 0.405 and the “increase in dead-cell fraction” value (Flavopiridol [6]; 1 µM) was 0.587. For the same cell line, the “increase in dead-cell fraction” value (LEE011/Ribociclib [7]; 0.001 µM) was -0.0167, the “increase in dead-cell fraction” value (LEE011/Ribociclib [7]; 0.003162 µM) was -0.0241 and the “increase in dead-cell fraction” value (LEE011/Ribociclib [7]; 0.01 µM) was 0.009. The “increase in dead-cell fraction” value (LEE011/Ribociclib [7]; 0.03162 µM) was -0.0043, the “increase in dead-cell fraction” value (LEE011/Ribociclib [7]; 0.1 µM) was -0.0009 and the “increase in dead-cell fraction” value (LEE011/Ribociclib [7]; 0.3162 µM) was 0.0111. The “increase in dead-cell fraction” value (LEE011/Ribociclib [7]; 1 µM) was -0.0007, the “increase in dead-cell fraction” value (LEE011/Ribociclib [7]; 3.162 µM) was 0.0201 and the “increase in dead-cell fraction” value (LEE011/Ribociclib [7]; 10 µM) was 0.0115. For the same cell line, the GR value (Flavopiridol [8]; 0.0001 µM) was 1.09 GR, the GR value (Flavopiridol [8]; 0.0003162 µM) was 0.867 GR and the GR value (Flavopiridol [8]; 0.001 µM) was 0.803 GR. The GR value (Flavopiridol [8]; 0.003162 µM) was 0.812 GR, the GR value (Flavopiridol [8]; 0.01 µM) was 1.03 GR and the GR value (Flavopiridol [8]; 0.03162 µM) was 0.485 GR. It also gave a GR value (Flavopiridol [8]; 0.1 µM) of 0.393 GR, a GR value (Flavopiridol [8]; 0.3162 µM) of -0.402 GR and a GR value (Flavopiridol [8]; 1 µM) of -0.571 GR. The GR value (BSJ-03-123; 0.001 µM) was 1.02 GR, the GR value (BSJ-03-123; 0.003162 µM) was 0.915 GR and the GR value (BSJ-03-123; 0.01 µM) was 0.885 GR. It also gave a GR value (BSJ-03-123; 0.03162 µM) of 0.967 GR, a GR value (BSJ-03-123; 0.1 µM) of 0.904 GR and a GR value (BSJ-03-123; 0.3162 µM) of 0.912 GR. It also gave a GR value (BSJ-03-123; 1 µM) of 0.782 GR, a GR value (BSJ-03-123; 3.162 µM) of 0.726 GR and a GR value (BSJ-03-123; 10 µM) of -0.109 GR. It also gave a GR value (LEE011/Ribociclib [9]; 0.001 µM) of 0.899 GR, a GR value (LEE011/Ribociclib [9]; 0.003162 µM) of 0.915 GR and a GR value (LEE011/Ribociclib [9]; 0.01 µM) of 0.885 GR. For the same cell line, the GR value (LEE011/Ribociclib [9]; 0.03162 µM) was 0.915 GR, the GR value (LEE011/Ribociclib [9]; 0.1 µM) was 0.758 GR and the GR value (LEE011/Ribociclib [9]; 0.3162 µM) was 0.817 GR. The GR value (LEE011/Ribociclib [9]; 1 µM) was 0.998 GR, the GR value (LEE011/Ribociclib [9]; 3.162 µM) was 0.753 GR and the GR value (LEE011/Ribociclib [9]; 10 µM) was 0.685 GR. The GR value (THZ1; 0.0001 µM) was 1.05 GR, the GR value (THZ1; 0.0003162 µM) was 1.03 GR and the GR value (THZ1; 0.001 µM) was 0.987 GR. For the same cell line, the GR value (THZ1; 0.003162 µM) was 0.977 GR, the GR value (THZ1; 0.01 µM) was 0.933 GR and the GR value (THZ1; 0.03162 µM) was 0.351 GR. The GR value (THZ1; 0.1 µM) was -0.278 GR, the GR value (THZ1; 0.3162 µM) was -0.408 GR and the GR value (THZ1; 1 µM) was -0.536 GR.
